According to patent publication US10752900B2, “Oligonucleotides for modulating gene expression and uses thereof” (BIOGENERA S.P.A., priority 2012, dated 2020):

Tests used:
[1] = tested on: SKNBE2c; assay: Cellular proliferation assay (ATP-Lite), SKNBE2c cells; type: cell-based, human; settings: Table 6
Description: For the purpose of assessing the gene modulation ability of the oligonucleotides of the present invention, the effect of their administration on cell viability was determined. For this purpose 5×10^3 cells per well were seeded into 96-well cell culture plates (experiments conducted in triplicate) with 100 μl of OPTI-MEM (GIBCO BRL) medium containing 4% FBS and 2 mM of L-glutammine. The PNA oligonucleotides were administered at different concentrations (1 μM-2.5 μM-5 μM-10 μM) in order to observe a dose-effect relationship. The viability of the treated cells was determined at 48, 72, 96 and 168 hours after treatment. Cell viability was assessed by means of an ATP-Lite assay (Luminescence ATP Detection Assay System, PerkinElmer) and is reported as the ratio between the average signal of the treated wells compared to the average value of the wells of untreated control cells. The cells were processed following the instructions provided with the kit. The assays were performed on the same cell lines used to determine the levels of the MYCN gene messenger and listed in the paragraph: Treatments with Oligonucleotides-QT-PCR. The PNAs having SEQ ID NO: 1-12 were also tested on different cell lines which overexpress MYCN (Kelly, SKNBE2c, RH30, […] 1 and H69). The results are shown in Table 6 and confirm the selectivity and specificity of the inhibition effect of the PNAs on the product of protein translation of the MYCN gene.

[2] = tested on: MYCN gene; assay: QT-PCR, MYCN mRNA in WERI-Rb1 cells; type: cell-based; settings: Table 6
Description: For the purpose of assessing the ability of the oligonucleotides of the present invention to modulate the expression of the target genes, their ability to reduce the quantity of messenger RNA was analyzed using the Real-Time PCR technique. For this purpose, use was made of 24-well plates, which were seeded with 5.0×10^4 cells with 0.3 ml of OPTI-MEM (GIBCO BRL) medium, 4% FBS and 2 mM L-glutammine (experiments in triplicate) per well. The cells were incubated for 24 hours at 37° C., in an atmosphere containing 5% CO2 to permit adherence to the base of the wells. For each well, the oligonucleotides were analyzed at the following final concentrations: • the antisense oligonucleotides siRNA and siRNA gapmer (i.e. the oligonucleotides containing one or more monomers of chemically modified nucleic acids at the 3' or 5' end, while in the central portion they have monomers of nucleic acids that have not been modified or have been modified at the level of the phosphodiester bond as a phosphorothioate bond) were used at 200 nM; • the antisense oligonucleotides containing phosphorothioate DNA monomers, the RNA antigene oligonucleotides (agRNA) and the oligonucleotides containing DNA monomers and LNA monomers were used at 10 μM; • the morpholino oligonucleotides were used at a concentration of 1 μM, and • the PNA oligonucleotides were administered at a concentration of 1 μM. The cells were treated with the oligonucleotides, adding FBS up to 4% 6 hours after administration of the same. After 24 hours the total RNA was extracted from each well and purified using the RNeasy Mini Kit (QIAGEN). As a control, use was made of the same cell lines as listed above treated with sterile water instead of oligonucleotides. Each RNA sample was quantified (in duplicate) using a NanoDrop ND-1000 spectrophotometer (NanoDrop Technologies). The first strand of cDNA was produced using the cDNA Synthesis Kit for RT-PCR (Roche). For the cDNA synthesis reaction a total of 1 μg of RNA was used. For the real-time PCR, 10 ng of cDNA in a final volume of 20 μl was used with SYBR Green Master Mix 2× (Applied Biosystems) (3 identical experiments were conducted in triplicate). Two housekeeping genes were used as positive controls: GAPDH and beta-actin (ACTB). The conditions of the QT-PCR reaction were: 10 min at 95° C., 20 sec at 95° C., and 30 sec at 60° C., for 50 cycles. The PNAs having SEQ ID NO: 1-12 were also tested on different cell lines which overexpress MYCN (Kelly, SKNBE2c, RH30, […] 1 and H69). The results are shown in Table 6 and confirm the selectivity and specificity of the inhibition effect of the PNAs on the product of protein translation of the MYCN gene.

[3] = tested on: H69; assay: Cellular proliferation assay (ATP-Lite), H69 cells; type: cell-based, human; settings: Table 6
Description: For the purpose of assessing the gene modulation ability of the oligonucleotides of the present invention, the effect of their administration on cell viability was determined.
For this purpose 5×10^3 cells per well were seeded into 96-well cell culture plates (experiments conducted in triplicate) with 100 μl of OPTI-MEM (GIBCO BRL) medium containing 4% FBS and 2 mM of L-glutammine.
The PNA oligonucleotides were administered at different concentrations (1 μM-2.5 μM-5 μM-10 μM) in order to observe a dose-effect relationship.
The viability of the treated cells was determined at 48, 72, 96 and 168 hours after treatment.
Cell viability was assessed by means of an ATP-Lite assay (Luminescence ATP Detection Assay System, PerkinElmer) and is reported as the ratio between the average signal of the treated wells compared to the average value of the wells of untreated control cells. The cells were processed following the instructions provided with the kit.
The assays were performed on the same cell lines used to determine the levels of the MYCN gene messenger and listed in the paragraph: Treatments with Oligonucleotides—QT-PCR.
The PNAs having SEQ ID NO: 1-12 were also tested on different cell lines which overexpress MYCN (Kelly, SKNBE2c, RH30, WiT49, WERI-Rb1 1 and H69). The results are shown in Table 6 and confirm the selectivity and specificity of the inhibition effect of the PNAs on the product of protein translation of the MYCN gene.
The ability of the tested oligonucleotides to inhibit the messenger of the gene of interest was measured and the proliferative capacity of the cells following administration of the oligonucleotides was also assessed.

[4] = tested on: human and mouse neuroblastoma tumour cell lines (SMS-KAN, LAN 1, IMR-32, SMS-KCN, Kelly, NHO2A, SKNBE2c); type: cell-based

Substance	SKNBE2c % cell prol. [1] [%]	WERI-Rb1 % mRNA [2] [%]	H69 % cell prol. [3] [%]	effect in terms of inhibiting cell proliferation in combination with chemotherapeutic agents [4]
SEQ ID NO: 3: PNA antigene oligonucleotide GATGCGGGGGGCTCCT directed against MYCN (PNA backbone, chemistry not fully specified)	53	43	63	–
SEQ ID NO: 12: PNA antigene oligonucleotide TGTCTGGACGCGCTGG directed against MYCN (all peptide nucleic acid (PNA))	71	30	78	–
SEQ ID NO: 6: PNA antigene oligonucleotide TGGACGCGCTGGGTGG directed against MYCN (PNA backbone, chemistry not fully specified)	57	37	69	–
SEQ ID NO: 9: PNA antigene oligonucleotide CCCTGCAGTCGGCGGG directed against MYCN (all peptide nucleic acid (PNA))	64	36	70	–
SEQ ID NO: 4: PNA antigene oligonucleotide GTCGGCGGGAGGTAAG directed against MYCN (PNA backbone, chemistry not fully specified)	59	41	66	–
SEQ ID NO: 11: PNA antigene oligonucleotide GGGAACTGTGTTGGAG directed against MYCN (PNA backbone, chemistry not fully specified)	71	30	78	–
SEQ ID NO: 8: PNA antigene oligonucleotide GTCTGGACGCGCTGGG directed against MYCN (all peptide nucleic acid (PNA))	56	40	66	–
SEQ ID NO: 5: PNA antigene oligonucleotide GCTGGGTGGATGCGGG directed against MYCN (PNA backbone, chemistry not fully specified)	64	38	68	–
SEQ ID NO: 2: PNA antigene oligonucleotide GGGTGGATGCGGGGGG directed against MYCN (PNA backbone, chemistry not fully specified)	52	46	61	–
SEQ ID NO: 7: PNA antigene oligonucleotide CGCGCTGGGTGGATGC directed against MYCN (all peptide nucleic acid (PNA))	58	38	67	–
SEQ ID NO: 1: PNA ATGCCGGGCATGATCT against MYCN; subject of patent EP 1618195, control sequence used for comparison (all peptide nucleic acid (PNA)) [reference compound]	72	31	77	synergic effect
SEQ ID NO: 10: PNA antigene oligonucleotide CGGCCGCGGGCCGCCA directed against MYCN (PNA backbone, chemistry not fully specified)	70	30	79	–
